Results as given in patent publication US20150218212A1, “FLUORINATED EPOXYKETONE-BASED TETRAPEPTIDE COMPOUNDS AND USES THEREOF AS PROTEASOME INHIBITORS” (FLUORINOV PHARMA INC., priority 2012, published 2015).

Columns and labels:
OCI-AML-2 = assay: Cell viability (MTS) assay, OCI-AML-2; format: cell-based; details: Homo sapiens, OCI-AML2; OCI-AML-2, MTS, 72 hours, mean ± standard deviation
Description: Human multiple myeloma cell lines 8226, H929, JJN3, KMH11, KMS11, KMS18, LP1, MM1S, OPM2 and U266 were grown in Iscove modified Dulbecco's medium (IMDM). Human leukemia cell lines K562, OCI-AML2 and U937 were cultured in RPMI-1640 medium. Primary peripheral blood mononuclear cells were isolated from multiple myeloma patients by Ficoll density gradient centrifugation and bone marrow aspirates were obtained from multiple myeloma patients at the Princess Margaret Cancer Centre of the University Health Network (UHN; Toronto, ON, Canada). Primary cells were cultured in IMDM. The collection and use of human tissue for this study was approved by the UHN institutional ethics review board. All cell culture media were obtained from the Ontario Cancer Institute Tissue Culture Media Facility (Toronto, ON, Canada) and were supplemented with 10% fetal calf serum, […] (Hyclone, Logan, Utah). All cells were grown in a humidified incubator at 37° C. with 5% CO2.
Cellular viability was primarily assessed by 3-(4,5-dimethylthiazol-2-yl)-5-(3-carboxymethoxyphenyl)-2-(4-sulfophenyl)-2H-tetrazolium (MTS) assay according to the manufacturer's instructions (Promega; Madison, Wis.). Cells were first seeded at a density of 10,000 cells per well in tissue culture-treated 96-well plates. Two hours after seeding, cells were treated with compounds for 72 hours at concentrations as indicated. As a control, cells were treated with DMSO alone in every assay plate. Following treatment and the MTS assay, cell viability was independently confirmed by reading the optical density (O.D.) at 490 nm and by exclusion of trypan blue stain (Invitrogen; Burlington, ON, Canada). The viability of primary mononuclear cells was determined by staining with Annexin V.
Table 8 summarizes the data of representative compounds of Formula I for cell viability and CT-L proteasome activity with OCI-AML-2 and KMS-11 cell lines.

DU-145 = assay: NCI screening panel, DU-145 (Prostate Cancer); format: cell-based, human
Description: (§1) Representative compounds of Formula I were screened using the National Cancer Institute (NCI) screening panel, which consists of a panel of human tumor cell lines, representing leukemia, melanoma, and cancers of the lung, colon, ovary, breast, prostate and renal system.
(§2) After 24 h, two plates of each cell line are fixed in situ with TCA, to represent a measurement of the cell population for each cell line at the time of drug addition (Tz). Experimental drugs are solubilised in dimethyl sulfoxide at 400-fold the desired final maximum test concentration and stored frozen prior to use. At the time of drug addition, an aliquot of frozen concentrate is thawed and diluted to twice the desired final maximum test concentration with complete medium containing 50 μg/mL gentamicin. Additional four, 10-fold or ½ log serial dilutions are made to provide a total of five drug concentrations plus control. Aliquots of 100 μl of these different drug dilutions are added to the appropriate microtiter wells already containing 100 μl of medium, resulting in the required final drug concentrations.
(§3) Following drug addition, the plates are incubated for an additional 48 h at 37° C., 5% CO2, 95% air, and 100% relative humidity. For adherent cells, the assay is terminated by the addition of cold TCA (trichloroacetic acid). Cells are fixed in situ by the gentle addition of 50 μl of cold 50% (w/v) TCA (final concentration, 10% TCA) and incubated for 60 minutes at 4° C. The supernatant is discarded, and the plates are washed five times with tap water and air dried. Sulforhodamine B (SRB) solution (100 μl) at 0.4% (w/v) in 1% acetic acid is added to each well, and plates are incubated for 10 minutes at room temperature. After staining, unbound dye is removed by washing five times with 1% acetic acid and the plates are air dried. Bound stain is subsequently solubilised with 10 mM trizma base, and the absorbance is read on an automated plate reader at a wavelength of 515 nm. For suspension cells, the methodology is the same except that the assay is terminated by fixing settled cells at the bottom of the wells by gently adding 50 μl of 80% TCA (final concentration, 16% TCA). Using the seven absorbance measurements [time zero, (Tz), control growth, (C), and test growth in the presence of drug at the five concentration levels (Ti)], the percentage growth is calculated at each of the drug concentrations levels. Percentage growth inhibition is calculated as: [(Ti−Tz)/(C−Tz)]×100 for concentrations for which Ti>/=Tz and [(Ti−Tz)/Tz]×100 for concentrations for which Ti<Tz.
(§4) Three dose response parameters are calculated for each experimental agent. Growth inhibition of 50% (GI50) is calculated from [(Ti−Tz)/(C−Tz)]×100=50, which is the drug concentration resulting in a 50% reduction in the net protein increase (as measured by SRB staining) in control cells during the drug incubation. The drug concentration resulting in total growth inhibition (TGI) is calculated from Ti=Tz. The LC50 (concentration of drug resulting in a 50% reduction in the measured protein at the end of the drug treatment as compared to that at the beginning) indicating a net loss of cells following treatment is calculated from [(Ti−Tz)/Tz]×100=−50. Values are calculated for each of these three parameters if the level of activity is reached. However, if the effect is not reached or is exceeded, the value for that parameter is expressed as greater or less than the maximum or minimum concentration tested.

SR = assay: NCI screening panel, SR (Leukemia); format: cell-based, human
Description: as §1, §2, §3, §4

U251 = assay: NCI screening panel, U251 (CNS Cancer); format: cell-based, human
Description: as §1, §2, §3, §4

NCI-H460 = assay: NCI screening panel, NCI-H460 (Non-Small Cell Lung Cancer); format: cell-based, human
Description: as §1, §2, §3, §4

ACHN = assay: NCI screening panel, ACHN (Renal Cancer); format: cell-based, human
Description: as §1, §2, §3, §4

SN12C = assay: NCI screening panel, SN12C (Renal Cancer); format: cell-based, human
Description: as §1, §2, §3, §4

HT29 = assay: NCI screening panel, HT29 (Colon Cancer); format: cell-based, human
Description: as §1, §2, §3, §4

RXF 393 = assay: NCI screening panel, RXF 393 (Renal Cancer); format: cell-based, human
Description: as §1, §2, §3, §4

786-0 = assay: NCI screening panel, 786-0 (Renal Cancer); format: cell-based, human
Description: as §1, §2, §3, §4

MDA-MB-231/ATCC = assay: NCI screening panel, MDA-MB-231/ATCC (Breast Cancer); format: cell-based, human
Description: as §1, §2, §3, §4

SMILES	IC50 (OCI-AML-2)	Log10GI50 (DU-145)	Log10LC50 (DU-145)	Log10TGI50 (DU-145)	Log10GI50 (SR)	Log10LC50 (SR)	Log10TGI50 (SR)	Log10GI50 (U251)	Log10LC50 (U251)	Log10TGI50 (U251)	Log10GI50 (NCI-H460)	Log10LC50 (NCI-H460)	Log10TGI50 (NCI-H460)	Log10GI50 (ACHN)	Log10LC50 (ACHN)	Log10TGI50 (ACHN)	Log10GI50 (SN12C)	Log10LC50 (SN12C)	Log10TGI50 (SN12C)	Log10GI50 (HT29)	other results
CC(C)C[C@H](NC(=O)[C@H](COC(F)F)NC(=O)CN1CCOCC1)C(=O)N[C@@H](COC(F)F)C(=O)N[C@@H](CC(C)C)C(=O)[C@@]1(C)CO1 [Example 1, (2S)—N-[(1S)-1-(difluoromethoxymethyl)-2-[[(1S)-3-methyl-1-[(2R)-2-methyloxirane-2-carbonyl]butyl]amino]-2-oxo-ethyl]-2-[[(2S)-3-(difluoromethoxy)-2-[(2-morpholinoacetyl)amino]propanoyl]amino]-4-methyl-pentanamide]	24.2 ± 7.2 nM	−7.25	>−4.00	−4.66	−7.52	>−4.00	−4.61	−7.58	>−4.00	−6.75	−7.30	>−4.00	−6.39	−6.34	>−4.00	>−4.00	−7.31	−4.88	−6.62	−7.77	Log10LC50 (HT29): >−4.00; Log10TGI50 (HT29): −4.15; Log10GI50 (RXF 393): −6.96; Log10LC50 (RXF 393): −6.21; Log10TGI50 (RXF 393): −6.59; Log10GI50 (786-0): −6.60; Log10LC50 (786-0): −5.05; Log10TGI50 (786-0): −5.84; Log10GI50 (MDA-MB-231/ATCC): −7.52; Log10LC50 (MDA-MB-231/ATCC): >−4.00; Log10TGI50 (MDA-MB-231/ATCC): −6.76
CC(C)C[C@H](NC(=O)[C@H](COC(F)F)NC(=O)CN1CCOCC1)C(=O)N[C@@H](Cc1ccccc1)C(=O)N[C@@H](CC(C)C)C(=O)[C@@]1(C)CO1 [Example 2, (2S)-N-[(1S)-1-benzyl-2-[[(1S)-3-methyl-1-[(2R)-2-methyloxirane-2-carbonyl]butyl]-amino]-2-oxo-ethyl]-2-[[(2S)-3-(difluoromethoxy)-2-[(2-morpholinoacetyl)amino]propanoyl]amino]-4-methyl-pentanamide]	8.41 ± 2.24 nM	−7.34	>−4.00	−5.00	<−8.00	>−4.00	>−4.00	−7.72	−5.63	−6.87	−7.37	>−4.00	−6.57	−6.71	>−4.00	>−4.00	−7.40	−4.92	−6.64	<−8.00	Log10LC50 (HT29): >−4.00; Log10TGI50 (HT29): −7.04; Log10GI50 (RXF 393): −7.52; Log10LC50 (RXF 393): −6.41; Log10TGI50 (RXF 393): −6.98; Log10GI50 (786-0): −7.09; Log10LC50 (786-0): >−4.00; Log10TGI50 (786-0): −6.01; Log10GI50 (MDA-MB-231/ATCC): −7.63; Log10LC50 (MDA-MB-231/ATCC): −4.37; Log10TGI50 (MDA-MB-231/ATCC): −6.79
